In patent US7598377B2, “Inhibition of phosphoinositide 3-kinase β” (AstraZeneca AB, priority 2002, dated 2009):
Entries after “also recorded” stand apart in the source; their conditions may differ. Where two headings read alike, the source gives them in different places.

What was measured:
[1] = tested on: carotid artery occlusive thrombus formation in rabbits; assay: Modified Folts model in rabbits; assay type: in vivo, New Zealand White rabbits
Protocol: (§1) Studies were approved by the University of Melbourne Animal Ethics Committee in accordance with the guidelines of the National Health & Medical Research Council of Australia. Anaesthesia was induced in Sprague-Dawley rats (260-400 g) with sodium pentobarbitone (Nembutal; 60 mg/kg i.p.; Merial Australia Pty. Ltd., Sydney, NSW, Australia), and in New Zealand White rabbits (2-3 kg) with pentobarbitone (15 mg/kg i.v.) and fentanyl (6 μg/kg i.v.; David Bull Laboratories, Mulgrave, VIC, Australia). Animals were mechanically ventilated (Ugo Basile ventilator, Comerio, VA, Italy) with room air supplemented with O2. Body temperature was maintained throughout the experiment. Arterial blood pressure was measured via a femoral artery catheter connected to a pressure transducer (Model 1050.1, AD Instruments, Sydney, NSW) and a blood flow probe (1 mm i.d. for rats & 2.5 mm i.d. for rabbits; flowmeter […], Transonic Systems Inc., Ithaca, N.Y., USA) was placed around each (control and test) carotid artery; all parameters were recorded on a PowerLab data acquisition system (8SP; AD Instruments). A silk suture was tied loosely around 1 artery, distal to the flow probe, for subsequent stenosis. […] Carotid blood flow was monitored until it reached 0 ml/min, indicating a clot had formed at the site of stenosis. […] Again, carotid blood flow was monitored until it reached 0 ml/min, and the time recorded. […]

[2] = tested on: carotid artery occlusive thrombus formation in rats; assay: Modified Folts model in rats; assay type: in vivo, Sprague-Dawley rats
Protocol: as §1

p110α-PI3K = target: T1, p110α-PI3K (Homo sapiens, UniProt P42336); assay: In vitro enzyme assay, p110α immunoprecipitated from platelet lysate (Biological Example 1); assay type: biochemical
T1 construct: The α and β isoforms of the PI3K were immunoprecipitated from a platelet lysate; from tissue; host or cells: washed platelets (lysate, immunoprecipitated with anti-p110α antibody)
Protocol: For each immunoprecipitation, 1 mg of lysate was incubated with an anti-p110α (1 μg), anti-p110β (1 μg), anti-p110δ (1 μg) or anti-PI4 kinase antibody (2-5 μg) and 50 μl of a 50% slurry of protein A beads overnight at 4° C. […] For PI4 kinase assays, protein A beads-immune complexes were also washed twice with lysis buffer, prior to two washes with 1× PI4 kinase assay buffer (20 mM Hepes, pH 7.5, 10 mM MgCl2, 0.3% Triton X-100) and the addition of other assay constituents, as described above. All reactions were terminated by the addition of 100 μl 1 M HCl, 200 μl choloroform/methanol (1:1) and 500 μl 2 M KCl and lipids extracted by centrifugation at 15,000×g for 2 minutes. The production of PI3 or PI4 kinase lipid products, PtdIns(3)P and PtdIns(4)P, were confirmed through TLC analysis. The lipid spots were then removed from the TLC plate and the level of radioactivity quantified to accurately determine the level of PtdIns(3)P/PtdIns(4)P production.

Ab1 = Ab1 (Homo sapiens, UniProt P00519); assay: Tyrosine kinase assay by MDS Pharma Services (Panlabs); assay type: biochemical
[3] = tested on: PI 3-kinase lipid products in platelets; assay: Shear-induced PI 3-kinase lipid products in platelets (cone & plate device, HPLC); assay type: cell-based
Protocol: Measurements of the lipid products PtdIns(4,5)P2 and PtdIns(3,4)P2 in intact platelets were performed by initially isolating lipids by HPLC and identifying lipid peaks using defined PtdIns(4,5)P2 and PtdIns(3,4)P2 standards. Lipids were integrated and normalized to total lipid applied and expressed as a fraction of untreated (control) samples.
For this assay, whole blood was collected in the presence of anti-coagulant [6 volumes blood to 1 volume anticoagulant (90 mM sodium citrate, 7 mM citric acid, pH 4.6, 140 mM dextrose and 70 mM theophylline)] and platelets isolated and washed using a modified method of Baezinger and Majerus (1974). Briefly, platelet-rich plasma (PRP) was obtained by centrifugation of whole blood at 200×g for 30 minutes. Platelets were then pelleted by centrifugation of the PRP at 2,000×g for 10 minutes. The platelet pellet was resuspended in platelet washing buffer (PWB) [4.3 mM K2HPO4, 4.3 mM Na2HPO4, 24.3 mM NaH2PO4, pH 6.5, 113 mM NaCl, 5.5 mM glucose, 0.5% bovine serum albumin (BSA) and 10 mM theophylline]. […] Lipid peaks co-eluting with commercially available PtdIns(3,4)P2 and PtdIns(4,5)P2 standards were integrated and normalized to total lipid applied and expressed as a fraction of control samples.

[4] = tested on: carotid artery occlusive thrombus formation in rats; assay: Electrolytic injury carotid model in rats; assay type: in vivo
Protocol: Treatments were given as an i.v. bolus at time−9 min (i.e. 5 min before applying the current). Error bars are average SEM from repeated-measures ANOVA. […] Error bars are ±1 SEM. Distal to the left carotid artery flow probe, a piece of Parafilm was inserted under the vessel for electrical isolation. The artery was placed onto a hook-shaped platinum electrode, after which, it was clamped distally to the electrode to occlude blood flow and a current of 7 mA was delivered for 4 min using a constant current unit (Model CCU1, Grass Instruments, Quincy, Mass., USA) connected to a Grass SD9 stimulator. The artery clamp was released immediately after this 4 min period. Blood flow was monitored for 60 min after the end of the stimulation. Thrombosis formation was defined by blood flow falling to zero.

T1 sequence (P42336 whole entry, canonical isoform): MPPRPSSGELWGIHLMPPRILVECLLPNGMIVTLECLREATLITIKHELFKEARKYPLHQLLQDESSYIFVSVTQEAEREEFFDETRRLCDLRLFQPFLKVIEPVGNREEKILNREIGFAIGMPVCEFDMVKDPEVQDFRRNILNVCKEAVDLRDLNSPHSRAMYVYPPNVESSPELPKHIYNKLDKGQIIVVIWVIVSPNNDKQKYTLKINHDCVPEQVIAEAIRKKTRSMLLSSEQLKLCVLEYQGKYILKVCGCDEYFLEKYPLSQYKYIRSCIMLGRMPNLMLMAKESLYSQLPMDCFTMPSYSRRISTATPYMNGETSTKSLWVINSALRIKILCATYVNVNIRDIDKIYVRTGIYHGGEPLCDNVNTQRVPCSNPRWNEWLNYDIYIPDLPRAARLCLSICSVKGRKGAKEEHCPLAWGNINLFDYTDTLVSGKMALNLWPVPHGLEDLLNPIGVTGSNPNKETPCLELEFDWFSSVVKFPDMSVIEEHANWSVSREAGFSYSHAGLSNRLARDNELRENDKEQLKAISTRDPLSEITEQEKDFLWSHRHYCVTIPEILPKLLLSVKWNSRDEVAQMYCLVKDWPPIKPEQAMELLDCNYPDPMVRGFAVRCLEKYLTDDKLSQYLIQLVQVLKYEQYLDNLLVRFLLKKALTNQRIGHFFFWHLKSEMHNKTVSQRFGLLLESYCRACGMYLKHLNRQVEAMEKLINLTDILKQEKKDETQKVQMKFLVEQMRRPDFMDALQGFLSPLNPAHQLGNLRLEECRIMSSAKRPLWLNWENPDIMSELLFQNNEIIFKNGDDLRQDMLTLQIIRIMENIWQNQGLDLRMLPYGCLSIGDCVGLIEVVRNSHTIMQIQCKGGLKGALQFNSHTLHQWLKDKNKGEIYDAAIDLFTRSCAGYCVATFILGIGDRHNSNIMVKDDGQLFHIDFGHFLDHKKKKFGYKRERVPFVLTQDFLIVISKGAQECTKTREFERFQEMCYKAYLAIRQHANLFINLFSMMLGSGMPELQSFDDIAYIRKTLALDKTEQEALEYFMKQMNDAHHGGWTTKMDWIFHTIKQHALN
T1 sequence (P27986 whole entry partner, canonical isoform): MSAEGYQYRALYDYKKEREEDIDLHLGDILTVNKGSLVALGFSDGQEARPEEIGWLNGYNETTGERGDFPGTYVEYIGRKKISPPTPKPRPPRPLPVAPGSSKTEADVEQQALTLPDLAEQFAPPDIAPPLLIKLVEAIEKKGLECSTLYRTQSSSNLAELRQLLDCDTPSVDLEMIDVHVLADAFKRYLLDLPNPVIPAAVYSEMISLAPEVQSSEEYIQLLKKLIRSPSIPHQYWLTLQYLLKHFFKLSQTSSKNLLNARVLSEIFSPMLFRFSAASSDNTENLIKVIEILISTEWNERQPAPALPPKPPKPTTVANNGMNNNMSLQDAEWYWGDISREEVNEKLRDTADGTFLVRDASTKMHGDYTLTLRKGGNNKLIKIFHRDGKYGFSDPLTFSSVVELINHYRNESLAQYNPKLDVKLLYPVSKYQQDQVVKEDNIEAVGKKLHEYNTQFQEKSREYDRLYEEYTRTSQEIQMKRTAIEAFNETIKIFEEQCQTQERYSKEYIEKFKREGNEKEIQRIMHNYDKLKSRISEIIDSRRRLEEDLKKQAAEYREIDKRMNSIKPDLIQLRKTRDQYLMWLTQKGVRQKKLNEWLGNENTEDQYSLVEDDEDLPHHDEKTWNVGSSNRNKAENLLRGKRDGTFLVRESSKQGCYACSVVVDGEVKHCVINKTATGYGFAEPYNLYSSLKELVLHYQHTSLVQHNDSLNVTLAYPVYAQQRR
Ab1, sequence (P00519 whole entry): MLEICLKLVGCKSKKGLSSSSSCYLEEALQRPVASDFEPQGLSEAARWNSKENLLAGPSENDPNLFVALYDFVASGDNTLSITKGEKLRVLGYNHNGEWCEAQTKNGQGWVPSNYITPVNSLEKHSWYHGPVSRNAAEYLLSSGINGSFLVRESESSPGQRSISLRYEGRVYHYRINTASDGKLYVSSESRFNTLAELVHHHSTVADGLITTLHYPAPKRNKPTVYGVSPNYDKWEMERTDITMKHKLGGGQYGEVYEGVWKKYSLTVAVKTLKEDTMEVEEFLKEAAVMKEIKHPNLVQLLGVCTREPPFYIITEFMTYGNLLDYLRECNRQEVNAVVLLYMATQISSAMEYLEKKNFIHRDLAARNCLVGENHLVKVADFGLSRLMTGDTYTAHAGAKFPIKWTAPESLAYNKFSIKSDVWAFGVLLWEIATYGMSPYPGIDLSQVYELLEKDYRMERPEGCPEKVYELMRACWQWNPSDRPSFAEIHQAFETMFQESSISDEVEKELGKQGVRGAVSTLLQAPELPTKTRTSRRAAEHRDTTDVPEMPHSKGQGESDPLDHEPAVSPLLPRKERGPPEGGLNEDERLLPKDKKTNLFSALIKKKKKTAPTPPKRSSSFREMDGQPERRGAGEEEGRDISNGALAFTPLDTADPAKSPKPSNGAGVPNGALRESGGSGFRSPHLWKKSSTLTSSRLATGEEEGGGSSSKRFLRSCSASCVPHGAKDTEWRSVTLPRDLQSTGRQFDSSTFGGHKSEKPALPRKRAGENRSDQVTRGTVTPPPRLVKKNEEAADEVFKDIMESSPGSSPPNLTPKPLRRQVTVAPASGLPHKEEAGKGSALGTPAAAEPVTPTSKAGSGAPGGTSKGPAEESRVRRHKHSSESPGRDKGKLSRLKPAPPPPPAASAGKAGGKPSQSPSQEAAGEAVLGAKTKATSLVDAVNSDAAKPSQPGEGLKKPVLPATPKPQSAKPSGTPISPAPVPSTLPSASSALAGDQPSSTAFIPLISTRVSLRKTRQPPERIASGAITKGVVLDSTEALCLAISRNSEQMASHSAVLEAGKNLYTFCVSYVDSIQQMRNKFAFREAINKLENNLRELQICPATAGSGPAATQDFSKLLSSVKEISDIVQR

Cc1cc(C(C)Nc2ccccc2)c2nc(N3CCOCC3)cc(=O)n2c1 (racemic) [TGX-221, (±)-7-methyl-2-morpholin-4-yl-9-(1-phenylaminoethyl)-pyrido[1,2-a]pyrimidin-4-one]
animals in which occlusive thrombus formation was immediately abolished ([1]; 2 mg/kg i.v. bolus): 100% | occlusive thrombus formation ([1]; 2 mg/kg, in words): completely prevented | animals in which occlusive thrombus formation was immediately abolished ([2]; 2 mg/kg i.v. bolus): 100% | occlusive thrombus formation ([2]; 2 mg/kg, in words): completely prevented | IC50 (p110α-PI3K; Table I, read-out: inhibitory concentration, alpha): > 5 µM | IC50 (p110α-PI3K; read-out: IC50 (μM), p110α-PI3K): 5 µM | IC50 (Ab1): > 10 µM | cellular levels of conventional phosphoinositides PtdIns, PtdIns(4)P and PtdIns(4,5)P2 ([3]; in words): without altering | PI 3-kinase lipid generation ([3]; shear 5000 s^−1, in words): selectively inhibited PI 3-kinase lipid generation | baseline arterial blood pressure, heart rate or carotid artery blood flow ([4]; both the Folts and electrolytic studies): no effect | occlusive thrombus formation ([4]; rats, 2 mg/kg in PG 5 minutes before injury, in words, 90% occlusion rate in vehicle-treated rats): completely prevented | carotid blood flow volume over the 60 min post-injury period ([4]; rats, 2 mg/kg, in words): preserving; also recorded: preserved
